Source: the supplement of paper PMC13207355
Structures can show the parent of a compound that is named as a salt.

Assays:
Settings in all cases: exposure time: 72 h
E13 [1] = patient-derived glioblastoma stem cells of classical subtype; assay: surviving fraction (nuclei count normalised to DMSO); higher = more cells surviving (less toxic)
E21 [2] = patient-derived glioblastoma stem cells of mesenchymal subtype; assay: as above
E28 [3] = patient-derived glioblastoma stem cells of classical subtype; assay: as above
E31 [4] = patient-derived glioblastoma stem cells of proneural subtype; assay: as above
E34 [5] = patient-derived glioblastoma stem cells of proneural subtype; assay: as above
E57 [6] = patient-derived glioblastoma stem cells of mesenchymal subtype; assay: as above
FT3469 [7] = normal neural stem cell line; assay: as above
E13 [8] = assay: phenotypic distance (Euclidean, principal components) from DMSO controls (arbitrary units); higher = stronger morphological change
E21 [9] = assay: as above
E28 [10] = assay: as above
E31 [11] = assay: as above
E34 [12] = assay: as above
E57 [13] = assay: as above
FT3469 [14] = assay: as above
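Throughout, for phenotypic distance (Euclidean, principal components) from DMSO controls: cell Painting imaging in 384-well plates, CellProfiler features reduced to at least 20 principal components, Euclidean distance versus same-plate DMSO vehicle wells (0.1% v/v), median over six images per well.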
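Throughout, for surviving fraction (nuclei count normalised to DMSO): nuclei counted by high-content imaging of Hoechst-stained cells in laminin-coated 384-well plates, relative to 0.1% DMSO vehicle wells, with staurosporine as cell-death control.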

Structure (SMILES): CC[C@]1(O)C[C@@H]2CN(CCc3c([nH]c4ccccc34)[C@@](C(=O)OC)(c3cc4c(cc3OC)N(C)[C@H]3[C@@](O)(C(=O)OC)[C@H](OC(C)=O)[C@]5(CC)C=CCN6CC[C@]43[C@@H]65)C2)C1 [Vinblastine sulfate]
- surviving fraction (E13 [1]; 4.1 nM): 0.22
- surviving fraction (E13 [1]; 12.3 nM): 0.177
- surviving fraction (E13 [1]; 37 nM): 0.175
- surviving fraction (E13 [1]; 111.1 nM): 0.159
- surviving fraction (E13 [1]; 333.3 nM): 0.171
- surviving fraction (E13 [1]; 1000 nM): 0.162
- surviving fraction (E13 [1]; 3000 nM): 0.194
- surviving fraction (E21 [2]; 4.1 nM): 0.0927
- surviving fraction (E21 [2]; 12.3 nM): 0.0948
- surviving fraction (E21 [2]; 37 nM): 0.0937
- surviving fraction (E21 [2]; 111.1 nM): 0.08
- surviving fraction (E21 [2]; 333.3 nM): 0.0642
- surviving fraction (E21 [2]; 1000 nM): 0.0421
- surviving fraction (E21 [2]; 3000 nM): 0.0326
- surviving fraction (E28 [3]; 4.1 nM): 0.39
- surviving fraction (E28 [3]; 12.3 nM): 0.297
- surviving fraction (E28 [3]; 37 nM): 0.291
- surviving fraction (E28 [3]; 111.1 nM): 0.236
- surviving fraction (E28 [3]; 333.3 nM): 0.269
- surviving fraction (E28 [3]; 1000 nM): 0.218
- surviving fraction (E28 [3]; 3000 nM): 0.204
- surviving fraction (E31 [4]; 4.1 nM): 0.0459
- surviving fraction (E31 [4]; 12.3 nM): 0.0237
- surviving fraction (E31 [4]; 37 nM): 0.0459
- surviving fraction (E31 [4]; 111.1 nM): 0.0325
- surviving fraction (E31 [4]; 333.3 nM): 0.0444
- surviving fraction (E31 [4]; 1000 nM): 0.0237
- surviving fraction (E31 [4]; 3000 nM): 0.0163
- surviving fraction (E34 [5]; 4.1 nM): 0.338
- surviving fraction (E34 [5]; 12.3 nM): 0.282
- surviving fraction (E34 [5]; 37 nM): 0.405
- surviving fraction (E34 [5]; 111.1 nM): 0.322
- surviving fraction (E34 [5]; 333.3 nM): 0.375
- surviving fraction (E34 [5]; 1000 nM): 0.226
- surviving fraction (E34 [5]; 3000 nM): 0.281
- surviving fraction (E57 [6]; 4.1 nM): 0.0751
- surviving fraction (E57 [6]; 12.3 nM): 0.0815
- surviving fraction (E57 [6]; 37 nM): 0.0676
- surviving fraction (E57 [6]; 111.1 nM): 0.0629
- surviving fraction (E57 [6]; 333.3 nM): 0.057
- surviving fraction (E57 [6]; 1000 nM): 0.0602
- surviving fraction (E57 [6]; 3000 nM): 0.057
- surviving fraction (FT3469 [7]; 4.1 nM): 0.427
- surviving fraction (FT3469 [7]; 12.3 nM): 0.416
- surviving fraction (FT3469 [7]; 37 nM): 0.414
- surviving fraction (FT3469 [7]; 111.1 nM): 0.334
- surviving fraction (FT3469 [7]; 333.3 nM): 0.372
- surviving fraction (FT3469 [7]; 1000 nM): 0.388
- surviving fraction (FT3469 [7]; 3000 nM): 0.353
- phenotypic distance (E13 [8]; 4.1 nM): 7.96
- phenotypic distance (E13 [8]; 12.3 nM): 7.11
- phenotypic distance (E13 [8]; 37 nM): 8.76
- phenotypic distance (E13 [8]; 111.1 nM): 7.57
- phenotypic distance (E13 [8]; 333.3 nM): 9.22
- phenotypic distance (E13 [8]; 1000 nM): 8.93
- phenotypic distance (E13 [8]; 3000 nM): 9.73
- phenotypic distance (E21 [9]; 4.1 nM): 9.17
- phenotypic distance (E21 [9]; 12.3 nM): 9.98
- phenotypic distance (E21 [9]; 37 nM): 11.1
- phenotypic distance (E21 [9]; 111.1 nM): 9.54
- phenotypic distance (E21 [9]; 333.3 nM): 8.35
- phenotypic distance (E21 [9]; 1000 nM): 8.21
- phenotypic distance (E21 [9]; 3000 nM): 11
- phenotypic distance (E28 [10]; 4.1 nM): 3.12
- phenotypic distance (E28 [10]; 12.3 nM): 3.85
- phenotypic distance (E28 [10]; 37 nM): 4.99
- phenotypic distance (E28 [10]; 111.1 nM): 4.47
- phenotypic distance (E28 [10]; 333.3 nM): 5.63
- phenotypic distance (E28 [10]; 1000 nM): 6.15
- phenotypic distance (E28 [10]; 3000 nM): 6.57
- phenotypic distance (E31 [11]; 4.1 nM): 6.42
- phenotypic distance (E31 [11]; 12.3 nM): 12.9
- phenotypic distance (E31 [11]; 37 nM): 11.4
- phenotypic distance (E31 [11]; 111.1 nM): 10.7
- phenotypic distance (E31 [11]; 333.3 nM): 14.5
- phenotypic distance (E31 [11]; 1000 nM): 10.1
- phenotypic distance (E31 [11]; 3000 nM): 9.92
- phenotypic distance (E34 [12]; 4.1 nM): 7.02
- phenotypic distance (E34 [12]; 12.3 nM): 7.36
- phenotypic distance (E34 [12]; 37 nM): 6.67
- phenotypic distance (E34 [12]; 111.1 nM): 7.53
- phenotypic distance (E34 [12]; 333.3 nM): 8.9
- phenotypic distance (E34 [12]; 1000 nM): 8.95
- phenotypic distance (E34 [12]; 3000 nM): 8.01
- phenotypic distance (E57 [13]; 4.1 nM): 5.33
- phenotypic distance (E57 [13]; 12.3 nM): 5.47
- phenotypic distance (E57 [13]; 37 nM): 6.45
- phenotypic distance (E57 [13]; 111.1 nM): 5.46
- phenotypic distance (E57 [13]; 333.3 nM): 5.55
- phenotypic distance (E57 [13]; 1000 nM): 5.53
- phenotypic distance (E57 [13]; 3000 nM): 6.15
- phenotypic distance (FT3469 [14]; 4.1 nM): 3.93
- phenotypic distance (FT3469 [14]; 12.3 nM): 4.58
- phenotypic distance (FT3469 [14]; 37 nM): 4.48
- phenotypic distance (FT3469 [14]; 111.1 nM): 5.12
- phenotypic distance (FT3469 [14]; 333.3 nM): 6.19
- phenotypic distance (FT3469 [14]; 1000 nM): 5.04
- phenotypic distance (FT3469 [14]; 3000 nM): 5.6
